Values of other authors in patent EP0534246A2, “Benzylamine derivatives and medicines with antiarrhythmic activity containing them” (BASF Aktiengesellschaft, priority 1991, dated 1993).

Target: K^+ATP-Kanal (Homo sapiens, UniProt Q14654)
Conditions: J. Mol. Cell. Cardiol. 21, Suppl. 2, S. 9, 1989

Chain of K^+ATP-Kanal (Q14654 whole entry): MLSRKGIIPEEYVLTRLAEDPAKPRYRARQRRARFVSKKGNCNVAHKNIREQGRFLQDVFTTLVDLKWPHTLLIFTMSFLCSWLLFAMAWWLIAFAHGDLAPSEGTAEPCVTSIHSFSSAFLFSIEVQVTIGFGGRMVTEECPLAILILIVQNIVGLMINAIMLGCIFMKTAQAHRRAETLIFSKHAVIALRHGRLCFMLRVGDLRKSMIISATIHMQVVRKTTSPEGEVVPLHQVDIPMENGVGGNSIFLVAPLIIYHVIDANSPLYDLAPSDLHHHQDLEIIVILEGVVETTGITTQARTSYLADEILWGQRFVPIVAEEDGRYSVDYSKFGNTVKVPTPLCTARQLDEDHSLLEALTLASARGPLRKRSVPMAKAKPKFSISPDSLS
Chain of K^+ATP-Kanal (O60706 whole entry partner): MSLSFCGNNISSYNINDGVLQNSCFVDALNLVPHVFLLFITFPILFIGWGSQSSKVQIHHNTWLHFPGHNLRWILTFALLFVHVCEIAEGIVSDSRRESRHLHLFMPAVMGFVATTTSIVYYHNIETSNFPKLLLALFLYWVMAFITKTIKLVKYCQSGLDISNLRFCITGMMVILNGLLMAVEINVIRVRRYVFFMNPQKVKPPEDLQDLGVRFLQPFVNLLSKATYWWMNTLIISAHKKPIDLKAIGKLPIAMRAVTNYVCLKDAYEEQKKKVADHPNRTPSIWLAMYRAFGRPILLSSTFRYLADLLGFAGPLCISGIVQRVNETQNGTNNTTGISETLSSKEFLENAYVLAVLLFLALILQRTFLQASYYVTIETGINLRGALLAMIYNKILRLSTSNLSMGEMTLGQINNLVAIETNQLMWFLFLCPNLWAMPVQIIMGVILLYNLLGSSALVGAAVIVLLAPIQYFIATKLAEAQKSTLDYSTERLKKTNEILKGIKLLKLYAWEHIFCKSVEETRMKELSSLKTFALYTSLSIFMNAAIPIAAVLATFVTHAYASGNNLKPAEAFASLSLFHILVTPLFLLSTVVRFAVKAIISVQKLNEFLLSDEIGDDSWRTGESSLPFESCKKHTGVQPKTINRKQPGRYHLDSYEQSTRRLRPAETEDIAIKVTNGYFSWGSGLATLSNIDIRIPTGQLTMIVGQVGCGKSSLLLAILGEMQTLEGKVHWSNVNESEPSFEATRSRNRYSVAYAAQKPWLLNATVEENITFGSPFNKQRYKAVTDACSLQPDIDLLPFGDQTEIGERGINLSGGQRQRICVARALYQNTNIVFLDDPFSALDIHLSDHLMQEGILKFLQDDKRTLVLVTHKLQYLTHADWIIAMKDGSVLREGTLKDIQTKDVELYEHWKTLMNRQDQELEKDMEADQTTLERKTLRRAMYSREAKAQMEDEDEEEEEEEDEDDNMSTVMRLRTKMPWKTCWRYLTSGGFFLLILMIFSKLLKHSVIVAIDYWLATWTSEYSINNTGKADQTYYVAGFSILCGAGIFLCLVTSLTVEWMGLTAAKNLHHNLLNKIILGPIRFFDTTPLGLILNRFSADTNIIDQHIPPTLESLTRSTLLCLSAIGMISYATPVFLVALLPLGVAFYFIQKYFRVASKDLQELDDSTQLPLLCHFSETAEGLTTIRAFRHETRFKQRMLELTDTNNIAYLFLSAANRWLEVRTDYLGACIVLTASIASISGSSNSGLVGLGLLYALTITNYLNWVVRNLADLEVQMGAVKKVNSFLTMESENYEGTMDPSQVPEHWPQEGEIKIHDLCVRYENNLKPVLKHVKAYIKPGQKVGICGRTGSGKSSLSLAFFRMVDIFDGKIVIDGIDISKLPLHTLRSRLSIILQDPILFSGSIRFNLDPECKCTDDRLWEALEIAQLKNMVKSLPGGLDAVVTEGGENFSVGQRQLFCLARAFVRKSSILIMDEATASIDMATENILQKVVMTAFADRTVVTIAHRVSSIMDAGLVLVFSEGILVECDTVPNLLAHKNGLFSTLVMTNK

Konzentration, bei der Wirkung gezeigt wird (Blocker des ATP-abhängigen K+-Kanals): ca. 100 um
Structure (SMILES): CCCCCC(O)CCCC(=O)O (stereo not shown) [5-Hydroxydekanoat]
